Experimental data from paper PMC10373102 (Molecular microbiology, 2011).

Biological target: T1, CtdQ; acylating aldehyde dehydrogenase (ADA) (Acidovorax sp. JS42, UniProt A1W2K2)
T1 sequence (A1W2K2 1-302): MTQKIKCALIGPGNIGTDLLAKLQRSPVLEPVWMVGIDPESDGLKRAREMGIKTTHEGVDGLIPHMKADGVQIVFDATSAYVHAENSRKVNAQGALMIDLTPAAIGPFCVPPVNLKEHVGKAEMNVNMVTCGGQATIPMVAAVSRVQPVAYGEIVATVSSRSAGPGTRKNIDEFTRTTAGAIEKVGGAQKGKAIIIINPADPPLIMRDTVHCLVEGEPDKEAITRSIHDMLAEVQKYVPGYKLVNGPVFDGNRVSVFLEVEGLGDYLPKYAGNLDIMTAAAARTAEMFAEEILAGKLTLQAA
Assay: enzyme assay in extract of E. coli expressing ctdQ
Format: biochemical
Conditions: details in SI

Row | Structure (SMILES) | enzyme assay in extract of E. coli expressing ctdQ
1 | CC=O [acetaldehyde] | the enzyme was equally active with acetaldehyde and propionaldehyde
2 | CCC=O [propionaldehyde] | the enzyme was equally active with acetaldehyde and propionaldehyde
